Results: ChEMBL document CHEMBL1201862, “PubChem BioAssay data set” (2004)
Several values for one entry are separate records, joined by “and”; a condition that tells them apart may be missing. Equal values may be shown once. Activity calls are given as the source filed them.

Tests used:
[1] = target: T1, Voltage-gated N-type calcium channel alpha-1B subunit/Amyloid beta A4 precursor protein-binding family A member 1 (Homo sapiens, UniProt Q00975+Q02410); type: protein assay
Large T antigen = Large T antigen (Simian virus 40, UniProt P03070); type: functional, Betapolyomavirus macacae;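 further: Confirmatory-stage PubChem screen for compounds that inhibit SV40 T antigen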
[2] = target: T1, Voltage-gated N-type calcium channel alpha-1B subunit/Amyloid beta A4 precursor protein-binding family A member 1; type: protein assay; remark: listed apart in the source
[3] = viability of PTEN-deleted HCT116 cells – cell-based, HCT116 PTEN knockout, dose response (AID 1047); type: functional;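 further: HCT116 colon tumor cells with PTEN knocked out; cells exposed to compound for 60 hours before readout; potency for loss of cell viability measured by luminescence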
[4] = viability of HCT116 lacking mutant beta-catenin – cell-based, human colon tumor, dose response (AID 1045); type: functional;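 further: HCT116 colon tumor cells with beta catenin knocked out; cells exposed to compound for 60 hours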
[5] = target: T2, Short transient receptor potential channel 4 (Mus musculus, UniProt Q9QUQ5); assay: block of DAMGO-driven TRPC4 calcium entry – cell-based, HEK293 TRPC4/mu-opioid, Fluo-4 calcium, dose response (AID 434942); type: functional;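 further: potency of inhibitors blocking the TRPC4 calcium response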
T2 sequence (Q9QUQ5 whole entry): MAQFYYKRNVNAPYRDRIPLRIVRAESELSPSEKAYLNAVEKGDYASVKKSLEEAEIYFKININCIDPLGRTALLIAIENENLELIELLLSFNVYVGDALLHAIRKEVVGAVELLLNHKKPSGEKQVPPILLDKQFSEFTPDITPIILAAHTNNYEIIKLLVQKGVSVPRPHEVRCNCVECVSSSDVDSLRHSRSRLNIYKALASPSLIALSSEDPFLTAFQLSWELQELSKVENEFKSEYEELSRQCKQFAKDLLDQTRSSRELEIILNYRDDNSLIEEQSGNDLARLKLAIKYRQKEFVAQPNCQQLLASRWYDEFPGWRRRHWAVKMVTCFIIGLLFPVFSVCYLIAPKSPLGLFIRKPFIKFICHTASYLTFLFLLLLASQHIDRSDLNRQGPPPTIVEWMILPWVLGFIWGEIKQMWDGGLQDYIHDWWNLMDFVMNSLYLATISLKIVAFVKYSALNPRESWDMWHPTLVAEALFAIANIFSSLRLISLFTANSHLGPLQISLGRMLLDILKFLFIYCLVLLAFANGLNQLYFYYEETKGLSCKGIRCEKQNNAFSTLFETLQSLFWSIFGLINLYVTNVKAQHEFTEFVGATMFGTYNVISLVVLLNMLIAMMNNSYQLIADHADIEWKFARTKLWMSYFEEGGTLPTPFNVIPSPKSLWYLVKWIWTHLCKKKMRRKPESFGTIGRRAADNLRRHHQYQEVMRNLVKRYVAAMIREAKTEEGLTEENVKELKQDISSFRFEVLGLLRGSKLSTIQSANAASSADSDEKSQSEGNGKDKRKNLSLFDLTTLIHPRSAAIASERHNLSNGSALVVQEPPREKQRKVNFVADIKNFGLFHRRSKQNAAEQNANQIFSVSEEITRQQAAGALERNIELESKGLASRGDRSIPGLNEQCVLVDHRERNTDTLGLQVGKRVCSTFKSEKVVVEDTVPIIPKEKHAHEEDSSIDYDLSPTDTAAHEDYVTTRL

HEK293 [6] = assay: inhibition of NOD1-driven NF-kB reporter – cell-based, luminescence, uHTS, primary screen (AID 1578); type: functional; conditions: Homo sapiens
HEK293 [7] = assay: cells; type: functional, cell-based; conditions: Homo sapiens
HEK293 [8] = assay: cells; type: functional, cell-based; conditions: Homo sapiens; remark: listed apart in the source
[9] = HPDE-C7 pancreatic duct cell viability loss – fluorescence, HTS (AID 430); type: functional, cell-based; conditions: Homo sapiens
[10] = target: Nucleotide-binding oligomerization domain-containing protein 2 (Homo sapiens, UniProt Q9HC29); assay: inhibition of NOD2-driven NF-kB reporter – cell-based, luminescence, uHTS, HEK293 (AID 1566); type: functional
HEK293 [11] = assay: NOD2 signaling inhibitors in MDP-stimulated cells, cell-based, uHTS, luminescence (AID 2001); type: functional; conditions: Homo sapiens
HEK293 [12] = assay: cells; type: functional, cell-based; conditions: Homo sapiens; remark: listed apart in the source
[13] = viability loss of HPDE-C7K cells – cell-based, fluorescence, HTS, primary screen (AID 431); type: functional; conditions: Homo sapiens
[14] = target: T3, E3 ubiquitin-protein ligase XIAP (Homo sapiens, UniProt P98170); assay: Counter Screen using XIAP-Bir3 for Chemical Antagonists of Bir1/2 domains of IAP-family anti-apoptotic proteins. [Related pubchem assays (depositor defined):AID1018, AID1449, AID1514, AID1638, AID1749, AID1750, AID488957, AID488963]
[15] = target: T3, E3 ubiquitin-protein ligase XIAP; assay: small molecules displacing peptide from XIAP – biochemical, IAP family, fluorescence polarization (AID 1018); type: functional
[16] = Trypanosoma cruzi growth suppression in host cells – NIH3T3 host cells, beta-gal luminescence, confirmation (AID 2044); type: functional, cell-based;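 further: intracellular parasites grown in NIH/3T3 mouse fibroblasts as host cells; luminescent beta-galactosidase reporter signal from transgenic T. cruzi replicating inside host cells; inhibitors lower the luminescence signal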
[17] = NIH3T3 cell viability loss – ATP luminescence, mouse fibroblasts, counter-screen, dose response (AID 2010); type: functional, cell-based;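 further: cells exposed to compound for about 90 hours before reading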
INS1 = assay: INS-1E survival protection against cytokine death – cell-based, luminescence, retest, dose response (AID 449756); type: functional; conditions: Rattus norvegicus;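 further: cell death triggered by IL-1 beta plus TNF-alpha plus IFN-gamma mixture; protective hits raise ATP signal compared with cytokine alone wells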
[18] = target: Glyceraldehyde-3-phosphate dehydrogenase (Homo sapiens, UniProt P04406)
[19] = target: Alkaline phosphatase, placental type (Homo sapiens, UniProt P05187); assay: human placental alkaline phosphatase inhibition – biochemical, luminescence, confirmation (AID 1512); type: functional
[20] = target: T4, Alkaline phosphatase, tissue-nonspecific isozyme (Homo sapiens, UniProt P05186); assay: potency against alkaline phosphatase TNAP – biochemical, luminescent, dose response, SAR follow-up (AID 1056)
T4 sequence (P05186 whole entry): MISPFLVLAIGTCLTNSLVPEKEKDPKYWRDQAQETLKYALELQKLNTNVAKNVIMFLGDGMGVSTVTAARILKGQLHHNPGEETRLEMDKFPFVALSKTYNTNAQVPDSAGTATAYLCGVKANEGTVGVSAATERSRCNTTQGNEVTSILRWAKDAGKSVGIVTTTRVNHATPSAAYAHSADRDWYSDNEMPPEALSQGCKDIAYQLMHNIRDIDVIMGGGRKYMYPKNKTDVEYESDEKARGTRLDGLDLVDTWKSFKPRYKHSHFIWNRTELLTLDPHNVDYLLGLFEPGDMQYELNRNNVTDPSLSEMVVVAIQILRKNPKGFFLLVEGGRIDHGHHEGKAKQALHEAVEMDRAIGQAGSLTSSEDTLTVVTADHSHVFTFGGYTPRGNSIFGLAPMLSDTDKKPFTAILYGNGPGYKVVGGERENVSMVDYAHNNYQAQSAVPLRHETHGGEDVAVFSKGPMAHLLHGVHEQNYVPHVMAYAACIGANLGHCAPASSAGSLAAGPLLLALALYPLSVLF

Ion channel NompC = Ion channel NompC (Danio rerio, UniProt Q7T1G6); assay: Dose response cell-based high-throughput screening assay for agonists of the transient receptor potential channel N1 (TRPN1). [Related pubchem assays (depositor defined):AID1424, AID1448]; type: functional
Mucolipin-3 = target: T5, Mucolipin-3 (Homo sapiens, UniProt Q8TDD5); assay: Fluorescence counterscreen assay for […] agonists: dose response cell-based high-throughput screening assay to identify agonists of the transient receptor potential channel ML3 (TRPML3). [Related pubchem assays: 1424, 1448 ]; type: functional
T5 sequence (Q8TDD5 whole entry): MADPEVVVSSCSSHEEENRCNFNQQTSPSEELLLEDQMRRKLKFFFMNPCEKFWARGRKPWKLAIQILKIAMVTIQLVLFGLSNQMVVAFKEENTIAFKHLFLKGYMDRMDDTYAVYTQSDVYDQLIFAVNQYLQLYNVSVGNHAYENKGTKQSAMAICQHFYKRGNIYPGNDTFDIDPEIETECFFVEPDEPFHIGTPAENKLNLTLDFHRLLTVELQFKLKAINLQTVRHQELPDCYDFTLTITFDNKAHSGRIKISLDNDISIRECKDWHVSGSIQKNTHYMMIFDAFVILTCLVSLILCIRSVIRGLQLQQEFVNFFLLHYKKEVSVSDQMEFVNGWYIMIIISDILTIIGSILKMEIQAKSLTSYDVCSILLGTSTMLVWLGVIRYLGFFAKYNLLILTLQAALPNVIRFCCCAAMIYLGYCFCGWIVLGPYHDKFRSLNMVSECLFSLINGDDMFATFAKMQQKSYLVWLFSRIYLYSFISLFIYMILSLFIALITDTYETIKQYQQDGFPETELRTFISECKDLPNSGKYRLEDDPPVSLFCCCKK

[21] = Luminescence Cell-Based Dose Retest to Confirm Inhibitors of Cancer Stem Cells. [Related pubchem assays (depositor defined):AID2717, AID2721]; type: functional; conditions: Homo sapiens
[22] = viability loss of HMLE_sh_eGFP cells – cell-based, luminescence, counter-screen for HMLE_sh_ECad selective toxicity project, dose response (AID 463074); type: functional, Homo sapiens;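 further: HMLE human mammary epithelial cells expressing control shRNA against eGFP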
[23] = viability of uninfected HEp-2 cells – cell-based, HTS, cytotoxicity control for RSV inhibitor project, dose response (AID 2410); type: functional; conditions: human respiratory syncytial virus
[24] = target: T6, Corticotropin-releasing factor receptor 2/Corticotropin-releasing factor-binding protein (Homo sapiens, UniProt P24387+Q13324); assay: activators of CRF receptor 2 with binding protein – uHTS hits, confirmation (AID 602473); type: functional; conditions: read-out: EC50_Mean
T6 sequence (Q13324 whole entry): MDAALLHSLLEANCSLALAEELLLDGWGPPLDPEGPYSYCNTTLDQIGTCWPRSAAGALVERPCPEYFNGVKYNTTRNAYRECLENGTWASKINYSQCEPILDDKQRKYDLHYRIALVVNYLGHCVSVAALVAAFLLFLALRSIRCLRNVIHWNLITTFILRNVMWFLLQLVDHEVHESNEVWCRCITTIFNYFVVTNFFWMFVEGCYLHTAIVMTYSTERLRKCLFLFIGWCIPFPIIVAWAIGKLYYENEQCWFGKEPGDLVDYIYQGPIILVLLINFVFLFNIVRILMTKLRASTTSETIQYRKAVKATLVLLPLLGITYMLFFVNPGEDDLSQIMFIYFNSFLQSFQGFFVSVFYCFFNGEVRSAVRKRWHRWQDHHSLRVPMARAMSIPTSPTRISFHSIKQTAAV
T6 sequence (P24387 whole entry): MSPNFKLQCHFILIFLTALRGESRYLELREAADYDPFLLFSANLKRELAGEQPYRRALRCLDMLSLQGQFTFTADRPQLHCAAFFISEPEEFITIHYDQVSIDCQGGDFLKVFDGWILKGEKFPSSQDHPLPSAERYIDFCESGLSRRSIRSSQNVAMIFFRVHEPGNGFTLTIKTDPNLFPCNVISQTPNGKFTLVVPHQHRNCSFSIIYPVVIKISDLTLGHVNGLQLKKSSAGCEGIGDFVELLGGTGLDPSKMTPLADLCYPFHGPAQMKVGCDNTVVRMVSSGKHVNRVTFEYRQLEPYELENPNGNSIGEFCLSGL

[25] = target: T7, Carboxy-terminal domain RNA polymerase II polypeptide A small phosphatase 1 (Homo sapiens, UniProt Q9GZU7); assay: CTDSP1 inhibitors, concentration-response, biochemical, absorbance readout, ultra-high-throughput screen actives (AID 540297); type: functional
T7 sequence (Q9GZU7 whole entry): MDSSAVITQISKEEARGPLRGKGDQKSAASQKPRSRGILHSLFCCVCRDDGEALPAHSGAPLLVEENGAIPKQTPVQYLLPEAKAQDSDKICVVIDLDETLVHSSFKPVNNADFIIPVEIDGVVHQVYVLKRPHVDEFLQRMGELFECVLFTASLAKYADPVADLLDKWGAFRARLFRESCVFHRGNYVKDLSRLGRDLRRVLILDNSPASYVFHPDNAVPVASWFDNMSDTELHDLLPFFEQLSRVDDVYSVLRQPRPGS

T3 sequence (P98170 whole entry): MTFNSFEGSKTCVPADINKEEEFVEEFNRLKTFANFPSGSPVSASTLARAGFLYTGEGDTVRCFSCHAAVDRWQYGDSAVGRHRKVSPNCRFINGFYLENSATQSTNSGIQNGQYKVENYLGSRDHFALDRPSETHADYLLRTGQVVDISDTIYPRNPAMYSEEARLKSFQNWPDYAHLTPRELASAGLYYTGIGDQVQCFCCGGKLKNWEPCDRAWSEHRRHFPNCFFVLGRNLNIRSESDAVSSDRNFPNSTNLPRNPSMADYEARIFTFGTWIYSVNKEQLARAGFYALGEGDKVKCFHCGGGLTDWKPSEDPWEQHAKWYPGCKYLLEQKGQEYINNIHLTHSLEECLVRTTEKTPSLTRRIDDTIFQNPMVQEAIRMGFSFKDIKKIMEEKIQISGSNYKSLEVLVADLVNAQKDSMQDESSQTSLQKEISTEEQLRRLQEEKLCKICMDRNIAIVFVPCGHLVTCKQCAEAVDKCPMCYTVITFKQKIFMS
Chain of Ion channel NompC (Q7T1G6 whole entry): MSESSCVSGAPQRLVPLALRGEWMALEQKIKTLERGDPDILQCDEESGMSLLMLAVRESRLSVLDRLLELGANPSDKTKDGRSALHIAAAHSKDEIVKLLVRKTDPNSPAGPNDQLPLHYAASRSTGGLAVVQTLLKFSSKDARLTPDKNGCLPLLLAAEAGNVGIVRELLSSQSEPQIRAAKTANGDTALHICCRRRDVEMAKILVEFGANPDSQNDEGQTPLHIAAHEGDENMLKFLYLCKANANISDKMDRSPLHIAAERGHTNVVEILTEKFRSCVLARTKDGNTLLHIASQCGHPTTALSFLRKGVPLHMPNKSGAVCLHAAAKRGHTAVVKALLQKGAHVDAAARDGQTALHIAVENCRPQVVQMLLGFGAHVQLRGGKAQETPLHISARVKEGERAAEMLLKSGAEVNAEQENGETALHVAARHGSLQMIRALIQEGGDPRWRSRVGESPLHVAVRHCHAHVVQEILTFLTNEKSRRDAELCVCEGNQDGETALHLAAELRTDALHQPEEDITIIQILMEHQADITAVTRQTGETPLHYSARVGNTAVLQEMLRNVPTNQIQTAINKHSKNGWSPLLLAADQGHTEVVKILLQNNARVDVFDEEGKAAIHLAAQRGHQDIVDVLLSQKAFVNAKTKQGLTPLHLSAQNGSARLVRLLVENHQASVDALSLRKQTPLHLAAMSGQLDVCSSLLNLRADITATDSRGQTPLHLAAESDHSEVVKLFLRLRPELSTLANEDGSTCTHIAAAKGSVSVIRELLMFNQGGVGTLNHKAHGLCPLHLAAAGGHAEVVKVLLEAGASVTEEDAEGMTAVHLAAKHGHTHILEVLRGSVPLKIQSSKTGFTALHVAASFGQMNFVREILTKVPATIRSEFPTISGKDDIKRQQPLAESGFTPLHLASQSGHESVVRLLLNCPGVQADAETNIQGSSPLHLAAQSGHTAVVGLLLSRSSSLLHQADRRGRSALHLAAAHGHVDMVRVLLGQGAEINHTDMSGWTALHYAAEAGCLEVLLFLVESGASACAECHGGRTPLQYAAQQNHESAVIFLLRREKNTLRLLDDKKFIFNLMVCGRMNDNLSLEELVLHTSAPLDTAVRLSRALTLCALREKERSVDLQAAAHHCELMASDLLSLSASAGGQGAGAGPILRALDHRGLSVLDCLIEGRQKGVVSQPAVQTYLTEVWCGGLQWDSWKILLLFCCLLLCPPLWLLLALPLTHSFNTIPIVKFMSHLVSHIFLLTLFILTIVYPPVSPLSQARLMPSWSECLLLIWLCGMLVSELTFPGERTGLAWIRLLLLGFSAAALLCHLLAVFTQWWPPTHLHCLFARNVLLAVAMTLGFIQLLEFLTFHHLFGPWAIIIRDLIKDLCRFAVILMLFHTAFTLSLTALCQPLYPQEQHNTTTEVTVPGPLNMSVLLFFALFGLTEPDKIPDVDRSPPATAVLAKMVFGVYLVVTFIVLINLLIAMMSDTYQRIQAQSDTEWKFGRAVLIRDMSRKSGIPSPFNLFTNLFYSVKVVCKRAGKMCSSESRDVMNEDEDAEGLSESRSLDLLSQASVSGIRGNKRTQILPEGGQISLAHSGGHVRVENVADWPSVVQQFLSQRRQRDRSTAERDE
Chain of Alkaline phosphatase, placental type (P05187 whole entry): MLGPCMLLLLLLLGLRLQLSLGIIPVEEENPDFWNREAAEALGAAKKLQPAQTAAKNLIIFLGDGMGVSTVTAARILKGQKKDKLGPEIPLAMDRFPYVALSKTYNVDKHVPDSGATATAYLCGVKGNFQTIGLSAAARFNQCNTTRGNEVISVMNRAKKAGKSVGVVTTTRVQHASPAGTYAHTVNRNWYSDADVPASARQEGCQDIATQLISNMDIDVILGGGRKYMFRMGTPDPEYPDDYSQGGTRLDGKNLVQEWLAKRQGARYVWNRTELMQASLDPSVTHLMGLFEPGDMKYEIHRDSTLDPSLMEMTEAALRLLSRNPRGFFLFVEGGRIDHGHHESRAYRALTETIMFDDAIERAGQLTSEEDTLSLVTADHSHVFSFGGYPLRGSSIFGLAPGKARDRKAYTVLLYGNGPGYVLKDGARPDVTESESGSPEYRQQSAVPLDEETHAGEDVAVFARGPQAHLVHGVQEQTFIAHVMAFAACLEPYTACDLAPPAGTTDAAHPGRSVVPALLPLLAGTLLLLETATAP
Chain of Large T antigen (P03070 whole entry): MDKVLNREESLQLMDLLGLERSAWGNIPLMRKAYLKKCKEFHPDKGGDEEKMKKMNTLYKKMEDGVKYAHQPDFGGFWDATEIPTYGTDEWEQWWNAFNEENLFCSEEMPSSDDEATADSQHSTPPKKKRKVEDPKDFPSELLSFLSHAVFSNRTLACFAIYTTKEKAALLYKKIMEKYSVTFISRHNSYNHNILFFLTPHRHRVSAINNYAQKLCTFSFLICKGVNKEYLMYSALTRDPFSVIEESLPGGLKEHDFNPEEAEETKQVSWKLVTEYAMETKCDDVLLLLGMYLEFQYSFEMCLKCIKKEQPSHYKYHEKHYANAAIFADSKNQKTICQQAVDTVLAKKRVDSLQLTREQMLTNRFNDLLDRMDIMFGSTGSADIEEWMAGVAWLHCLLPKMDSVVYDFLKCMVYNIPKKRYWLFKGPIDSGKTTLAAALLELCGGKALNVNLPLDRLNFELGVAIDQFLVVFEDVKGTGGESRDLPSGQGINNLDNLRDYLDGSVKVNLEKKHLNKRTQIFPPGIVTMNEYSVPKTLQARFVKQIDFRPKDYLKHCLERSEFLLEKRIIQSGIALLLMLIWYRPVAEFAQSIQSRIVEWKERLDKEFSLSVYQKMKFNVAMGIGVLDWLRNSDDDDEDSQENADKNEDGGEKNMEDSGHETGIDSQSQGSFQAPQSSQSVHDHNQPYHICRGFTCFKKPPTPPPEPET
Chain of Nucleotide-binding oligomerization domain-containing protein 2 (Q9HC29 whole entry, the tested form may be a part): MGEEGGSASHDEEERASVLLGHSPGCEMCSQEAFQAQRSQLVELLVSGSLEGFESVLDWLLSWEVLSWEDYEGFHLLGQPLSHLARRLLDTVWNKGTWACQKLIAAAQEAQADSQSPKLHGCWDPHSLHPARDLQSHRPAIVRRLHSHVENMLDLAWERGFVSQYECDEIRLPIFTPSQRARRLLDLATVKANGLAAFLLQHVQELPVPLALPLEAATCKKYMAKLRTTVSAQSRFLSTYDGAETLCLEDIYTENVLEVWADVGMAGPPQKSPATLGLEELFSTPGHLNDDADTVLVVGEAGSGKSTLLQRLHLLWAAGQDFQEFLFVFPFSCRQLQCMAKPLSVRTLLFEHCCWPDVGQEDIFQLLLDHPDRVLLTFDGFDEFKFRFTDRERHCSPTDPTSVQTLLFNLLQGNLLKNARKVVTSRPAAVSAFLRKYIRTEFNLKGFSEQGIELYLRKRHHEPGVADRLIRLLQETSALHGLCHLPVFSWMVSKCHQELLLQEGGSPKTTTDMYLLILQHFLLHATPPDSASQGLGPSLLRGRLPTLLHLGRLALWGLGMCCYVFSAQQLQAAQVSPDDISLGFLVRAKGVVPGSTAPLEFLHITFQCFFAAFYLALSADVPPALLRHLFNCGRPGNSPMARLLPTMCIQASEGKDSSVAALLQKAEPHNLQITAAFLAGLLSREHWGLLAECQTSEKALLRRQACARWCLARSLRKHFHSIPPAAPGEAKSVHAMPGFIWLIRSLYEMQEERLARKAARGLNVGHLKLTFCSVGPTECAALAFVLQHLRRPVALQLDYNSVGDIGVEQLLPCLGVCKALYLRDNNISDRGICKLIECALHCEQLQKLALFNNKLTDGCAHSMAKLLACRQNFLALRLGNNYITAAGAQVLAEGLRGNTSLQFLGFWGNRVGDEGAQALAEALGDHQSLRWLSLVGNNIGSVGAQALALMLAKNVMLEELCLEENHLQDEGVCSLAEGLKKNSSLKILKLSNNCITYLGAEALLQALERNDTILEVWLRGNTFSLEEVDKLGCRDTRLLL
Chain of Glyceraldehyde-3-phosphate dehydrogenase (P04406 whole entry): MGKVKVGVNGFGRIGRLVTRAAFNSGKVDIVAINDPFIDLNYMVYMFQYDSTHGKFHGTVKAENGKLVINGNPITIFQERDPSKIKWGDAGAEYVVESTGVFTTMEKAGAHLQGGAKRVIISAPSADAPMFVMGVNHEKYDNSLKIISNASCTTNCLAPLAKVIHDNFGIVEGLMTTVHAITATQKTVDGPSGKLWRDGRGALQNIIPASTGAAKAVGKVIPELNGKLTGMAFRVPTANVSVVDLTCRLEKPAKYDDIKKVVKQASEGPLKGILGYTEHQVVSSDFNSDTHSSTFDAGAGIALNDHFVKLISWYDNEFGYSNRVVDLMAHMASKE

Compound: Cc1cc(C)c2c(=O)n(CC(=O)NCCCN3CCN(c4ccccc4F)CC3)sc2n1
- IC50 [1]: 12.4 µM (active)
- IC50 (Large T antigen): 14.3 µM (active)
- IC50 [2]: 48.8 µM (active)
- EC50 [3]: 18 µM (active)
- EC50 [4]: 17 µM (active)
- EC50 [5]: 0.0013 µM (active)

Compound: Cc1cc(NC(=O)CCS(=O)(=O)c2nc(-c3ccccc3)cc(C(F)(F)F)n2)no1
- EC50 (HEK293 [6]): > 20 µM (inactive)
- IC50 (HEK293 [7]): 6.11 µM (active)
- IC50 (HEK293 [8]): > 20 µM (inactive)
- EC50 [9]: 9.01 µM (active)
- EC50 [10]: > 20 µM (inactive)
- IC50 (HEK293 [11]): 8.24 µM (inactive)
- IC50 (HEK293 [12]): > 20 µM (inactive)
- EC50 [13]: > 20 µM (not active)

Compound: Cc1nn(S(=O)(=O)c2ccc(Cl)cc2)c(C)c1Sc1ccc([N+](=O)[O-])cc1
- IC50 [14]: > 100 µM (inactive)
- IC50 [15]: > 100 µM (not active)
- EC50 [16]: 1.73 µM (active)
- EC50 [17]: > 60 µM (not active)
- AC50 (INS1): 6.21 µM (active)

Compound: CCS(=O)(=O)c1nc(NC(C)=O)n[nH]1
- IC50 [18]: > 100 µM (not active)
- IC50 [19]: > 100 µM (inactive)
- IC50 [20]: 94.8 µM (active) and > 100 µM (inactive)

Compound: Cc1ccc(N2C(=O)CC(N3CCSCC3)C2=O)c(C)c1 (stereo not given)
- EC50 (Ion channel NompC): > 29.9 µM (inactive)
- EC50 (Mucolipin-3): > 29.9 µM (not active)

Compound: Clc1ccc(CSc2nnc(-c3cccnc3)n2Cc2ccco2)c(Cl)c1
- AC50 [21]: 28 µM (active)
- AC50 [22]: 31.4 µM (active)

Compound: CCOC(=O)N1CCC(NC(=O)C(NC(=O)C2CCC(C)CC2)C(C)CC)CC1 (stereo not given)
- IC50 [14]: > 100 µM (inactive)
- IC50 [15]: > 100 µM (not active)

Compound: CC(C)c1nc2c(c(=O)c3ccccc3n2C)c(=O)n1CCc1ccccc1
- CC50 [23]: 36 µM (active)
- EC50 (Ion channel NompC): 3.97 µM (active)
- EC50 (Mucolipin-3): 3.96 µM (active)
- EC50 [24]: 9.93 µM (active)
- IC50 (cells): 13.2 µM (active)

Compound: O=C(CSc1nnc(-c2ccncc2)n1-c1ccc(Cl)cc1)c1ccc(O)c(O)c1
- IC50 [19]: 6.63 µM (active)
- IC50 [20]: 38.7 µM (active)

Compound: C/C(=N\NC(=O)c1cc(-c2cccc([N+](=O)[O-])c2)[nH]n1)c1ccccc1O
- EC50 [16]: 2.18 µM (active)
- EC50 [17]: 6.64 µM (active)
- AC50 [21]: 2.35 µM (active)
- AC50 [22]: 50.7 µM (active)
- IC50 [25]: 1.7 µM (active)
